Results as given in ChEMBL document CHEMBL5046271, “Design, Synthesis, and Biological Evaluation of 2-Formyl Tetrahydronaphthyridine Urea Derivatives as New Selective Covalently Reversible FGFR4 Inhibitors” (J Med Chem, 2022).
pIC50, pKd: −log10 of the molar value. The source made the active and inactive calls. The rule behind the calls is not given here.

Experiments:
MDA-MB-453 = assay: Cytotoxicity against human MDA-MB-453 cells harboring FGF19/FGFR4 assessed as inhibition of cell growth
[1] = target: T1, Fibroblast growth factor receptor 1 (Homo sapiens, UniProt P11362); assay: Inhibition of human FGFR1 expressed in bacterial expression system at 1000 nM by KINOMEscan assay relative to control
Hep 3B2 [2] = assay: Antitumor activity against human Hep 3B2.1-7 cells xenografted in mouse assessed as tumor growth inhibitions at 30 mg/kg, po BID administered for 12 days; assay type: functional; details: Hep3B, 288 h, time 12 day, read-out: TGI
Hep 3B2 [3] = assay: Inhibition of colony formation in human Hep 3B2.1-7 cells incubated for 10 days by crystal violet staining based assay; assay type: functional, cell-based; details: time 10.0 day
BaF3 [4] = assay: Inhibition of FGFR4 expressed in mouse BaF3-ETV6-FGFR4 cells assessed as inhibition of FRS2alpha phosphorylation by Western blot analysis; assay type: cell-based; details: dose 3.7-100 nM
[5] = Cmax in Sprague-Dawley rat at 25 mg/kg, po incubation upto 24 hrs by LC-MS/MS analysis; assay type: ADME, organism-based; design: route oral, dose 25 mg/kg, time <=24; details: in vivo
NCI-H1581 [6] = assay: Cytotoxicity against human NCI-H1581 cells harboring FGF19/FGFR4 assessed as inhibition of cell growth
[7] = tested on: Fibroblast growth factor receptor 2 (Homo sapiens), P21802 [N549H]; assay: Inhibition of human FGFR2 N549H mutant expressed in bacterial expression system at 1000 nM by KINOMEscan assay relative to control
Huh-7 = assay: Cytotoxicity against human Huh-7 cells harboring FGF19/FGFR4 assessed as inhibition of cell growth
NCI-H1581 [8] = assay: Antiproliferative activity in human NCI-H1581 cells assessed as reduction of cell number measured after 72 hrs by CCK8 assay; assay type: functional, cell-based
BaF3 [9] = assay: Inhibition of FGFR4 expressed in mouse BaF3-ETV6-FGFR4 cells assessed as inhibition of ERK phosphorylation by Western blot analysis; assay type: cell-based; details: dose 3.7-100 nM
[10] = target: Transient receptor potential cation channel subfamily M member 7 (Homo sapiens) (UniProt Q96QT4); assay: Inhibition of human CHAK1 at 1000 nM by KINOMEscan assay relative to control
[11] = target: T2, Dual specificity protein kinase TTK (Homo sapiens) (UniProt P33981); assay: Inhibition of human TTK at 1000 nM by KINOMEscan assay relative to control
T2 sequence (whole entry): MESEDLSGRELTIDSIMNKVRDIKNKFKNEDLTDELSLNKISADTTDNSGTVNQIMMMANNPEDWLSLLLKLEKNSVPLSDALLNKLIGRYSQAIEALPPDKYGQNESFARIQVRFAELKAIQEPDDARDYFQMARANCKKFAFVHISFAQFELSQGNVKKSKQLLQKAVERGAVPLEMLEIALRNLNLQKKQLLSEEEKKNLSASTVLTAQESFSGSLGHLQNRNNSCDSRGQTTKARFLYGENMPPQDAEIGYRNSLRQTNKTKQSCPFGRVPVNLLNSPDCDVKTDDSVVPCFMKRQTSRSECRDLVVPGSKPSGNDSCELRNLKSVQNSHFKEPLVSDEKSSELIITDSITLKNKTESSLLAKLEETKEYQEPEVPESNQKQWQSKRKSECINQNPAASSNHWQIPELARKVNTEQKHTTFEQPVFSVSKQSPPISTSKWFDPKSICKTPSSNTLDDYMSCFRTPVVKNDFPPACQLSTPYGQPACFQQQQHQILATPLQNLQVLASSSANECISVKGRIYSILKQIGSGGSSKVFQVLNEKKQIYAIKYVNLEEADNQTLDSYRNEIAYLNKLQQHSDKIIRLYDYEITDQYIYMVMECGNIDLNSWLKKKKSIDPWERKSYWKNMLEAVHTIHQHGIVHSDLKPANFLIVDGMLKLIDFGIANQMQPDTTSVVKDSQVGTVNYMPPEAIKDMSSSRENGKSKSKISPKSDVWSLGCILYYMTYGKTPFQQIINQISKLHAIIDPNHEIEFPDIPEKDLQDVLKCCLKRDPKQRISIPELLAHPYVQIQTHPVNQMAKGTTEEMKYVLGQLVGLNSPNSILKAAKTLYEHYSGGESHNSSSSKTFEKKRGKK

[12] = AUC(0 to t) inSprague- Dawley rat at 25 mg/kg, po incubation upto 24 hrs by LC-MS/MS analysis; assay type: ADME, organism-based; design: route oral, dose 25 mg/kg, time <=24; details: Sprague-Dawley, in vivo
[13] = target: Proto-oncogene tyrosine-protein kinase receptor Ret (Homo sapiens) (UniProt P07949); assay: Inhibition of human RET expressed in bacterial expression system at 1000 nM by KINOMEscan assay relative to control
[14] = target: T3, Fibroblast growth factor receptor 4 (Homo sapiens, UniProt P22455); assay: Binding affinity to FGFR4 (unknown origin) assessed as dissociation constant by competition binding assay
[15] = target: Receptor-type tyrosine-protein kinase FLT3 (Homo sapiens) (UniProt P36888); assay: Inhibition of human FLT3 expressed in bacterial expression system at 1000 nM by KINOMEscan assay relative to control
[16] = Cmax in Sprague-Dawley rat at 5 mg/kg, iv incubation upto 24 hrs by LC-MS/MS analysis; assay type: ADME, organism-based; design: route intravenous, dose 5 mg/kg, time <=24; details: in vivo
[17] = target: T3, Fibroblast growth factor receptor 4; assay: Inhibition of FGFR4 (unknown origin) using Tyr 04 peptide substrate measured after 2 hrs by FRET assay
[18] = AUC(0 to t) in Sprague-Dawley rat at 5 mg/kg, iv incubation upto 24 hrs by LC-MS/MS analysis; assay type: ADME, organism-based; design: route intravenous, dose 5 mg/kg, time <=24; details: in vivo
[19] = target: T4, Fibroblast growth factor receptor 3 (Homo sapiens, UniProt P22607); assay: Inhibition of FGFR3 (unknown origin) using Tyr 04 peptide substrate measured after 2 hrs by FRET assay
[20] = target: Platelet-derived growth factor receptor alpha (Homo sapiens) (UniProt P16234); assay: Inhibition of human PDGFRA expressed in mammalian expression system at 1000 nM by KINOMEscan assay relative to control
[21] = target: Fibroblast growth factor receptor 2 (Homo sapiens, UniProt P21802); assay: Inhibition of FGFR2 (unknown origin) using Tyr 04 peptide substrate measured after 2 hrs by FRET assay
[22] = Clearance in Sprague- Dawley rat at 5 mg/kg, iv incubation upto 24 hrs by LC-MS/MS analysis; assay type: ADME, organism-based; details: in vivo
BaF3 [23] = assay: Inhibition of FGFR4 expressed in mouse BaF3-ETV6-FGFR4 cells assessed as inhibition of PLCgamma1 phosphorylation by Western blot analysis; assay type: cell-based; details: dose 3.7-100 nM
[24] = Toxicity in mouse assessed as mortality at 30 mg/kg, po BID administered for 12 days (reference value: < 5 %); assay type: organism-based; details: in vivo, 288 h, time 12 day
[25] = Half life in Sprague- Dawley rat at 25 mg/kg, po incubation upto 24 hrs by LC-MS/MS analysis; assay type: ADME, organism-based; details: in vivo
[26] = Oral bioavailability in Sprague- Dawley rat at 25 mg/kg incubation upto 24 hrs by LC-MS/MS analysis; assay type: ADME, organism-based; details: in vivo
Hep 3B2 [27] = assay: Antiproliferative activity in human Hep 3B2.1-7 cells assessed as reduction of cell number measured after 72 hrs by CCK8 assay; assay type: functional, cell-based
[28] = Toxicity in mouse assessed as induction of weight loss at 30 mg/kg, po BID administered for 12 days (reference value: < 5 %); assay type: organism-based; details: in vivo, 288 h, time 12 day
[29] = target: MAP kinase-activated protein kinase 2 (Homo sapiens) (UniProt P49137); assay: Inhibition of human MAPKAPK2 expressed in bacterial expression system at 1000 nM by KINOMEscan assay relative to control
NCI-H1581 [30] = assay: Inhibition of colony formation in human NCI-H1581 cells incubated for 10 days by crystal violet staining based assay; assay type: functional, cell-based; details: time 10.0 day
[31] = Half life in Sprague- Dawley rat at 5 mg/kg, iv incubation upto 24 hrs by LC-MS/MS analysis; assay type: ADME, organism-based; details: in vivo
[32] = target: T1, Fibroblast growth factor receptor 1; assay: Inhibition of FGFR1 (unknown origin) using Tyr 04 peptide substrate measured after 2 hrs by FRET assay
[33] = target: Phosphatidylinositol 4-kinase alpha (Homo sapiens) (UniProt P42356); assay: Inhibition of human PIK4 at 1000 nM by KINOMEscan assay relative to control
[34] = target: Platelet-derived growth factor receptor beta (Homo sapiens) (UniProt P09619); assay: Inhibition of human PDGFRB expressed in bacterial expression system at 1000 nM by KINOMEscan assay relative to control
[35] = target: T4, Fibroblast growth factor receptor 3; assay: Inhibition of human FGFR3 expressed in bacterial expression system at 1000 nM by KINOMEscan assay relative to control
[36] = target: MAP kinase-activated protein kinase 3 (Homo sapiens) (UniProt Q16644); assay: Inhibition of human MAPKAPK3 expressed in bacterial expression system at 1000 nM by KINOMEscan assay relative to control
Hep 3B2 [37] = assay: Cytotoxicity against human Hep 3B2.1-7 cells harboring FGF19/FGFR4 assessed as inhibition of cell growth; details: Hep3B

T3 sequence (P22455 whole entry): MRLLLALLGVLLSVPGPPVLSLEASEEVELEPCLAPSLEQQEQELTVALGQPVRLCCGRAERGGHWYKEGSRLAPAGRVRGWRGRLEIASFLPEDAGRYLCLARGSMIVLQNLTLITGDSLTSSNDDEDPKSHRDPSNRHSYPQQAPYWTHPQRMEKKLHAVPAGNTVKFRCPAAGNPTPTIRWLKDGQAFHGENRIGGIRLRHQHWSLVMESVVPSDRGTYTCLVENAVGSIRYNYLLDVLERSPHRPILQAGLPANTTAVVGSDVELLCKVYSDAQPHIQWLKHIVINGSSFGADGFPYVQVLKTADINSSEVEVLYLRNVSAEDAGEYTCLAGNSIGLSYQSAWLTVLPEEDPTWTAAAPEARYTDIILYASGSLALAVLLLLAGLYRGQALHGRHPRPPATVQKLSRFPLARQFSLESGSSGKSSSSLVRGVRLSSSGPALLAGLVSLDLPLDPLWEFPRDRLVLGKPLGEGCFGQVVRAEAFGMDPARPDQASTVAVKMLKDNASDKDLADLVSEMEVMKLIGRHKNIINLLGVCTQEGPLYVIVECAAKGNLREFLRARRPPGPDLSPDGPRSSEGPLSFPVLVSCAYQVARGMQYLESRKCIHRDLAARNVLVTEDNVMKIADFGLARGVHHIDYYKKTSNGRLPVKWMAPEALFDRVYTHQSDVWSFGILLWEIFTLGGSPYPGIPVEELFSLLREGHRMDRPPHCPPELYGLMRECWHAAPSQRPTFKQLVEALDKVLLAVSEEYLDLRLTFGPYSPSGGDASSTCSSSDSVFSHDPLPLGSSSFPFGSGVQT
MAP kinase-activated protein kinase 2 (Homo sapiens), sequence (P49137 whole entry, looked up): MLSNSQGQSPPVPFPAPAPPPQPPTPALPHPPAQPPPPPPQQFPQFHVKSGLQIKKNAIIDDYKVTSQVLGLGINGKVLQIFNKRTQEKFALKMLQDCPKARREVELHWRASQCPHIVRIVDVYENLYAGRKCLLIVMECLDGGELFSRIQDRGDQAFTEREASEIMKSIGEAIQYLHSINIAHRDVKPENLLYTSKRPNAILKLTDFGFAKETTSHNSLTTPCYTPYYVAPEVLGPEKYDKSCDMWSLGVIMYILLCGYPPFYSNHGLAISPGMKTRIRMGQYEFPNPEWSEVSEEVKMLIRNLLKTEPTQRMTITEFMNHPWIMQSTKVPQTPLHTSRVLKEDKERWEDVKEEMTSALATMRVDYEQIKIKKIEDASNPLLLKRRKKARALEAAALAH
Phosphatidylinositol 4-kinase alpha (Homo sapiens), sequence (P42356 whole entry, looked up): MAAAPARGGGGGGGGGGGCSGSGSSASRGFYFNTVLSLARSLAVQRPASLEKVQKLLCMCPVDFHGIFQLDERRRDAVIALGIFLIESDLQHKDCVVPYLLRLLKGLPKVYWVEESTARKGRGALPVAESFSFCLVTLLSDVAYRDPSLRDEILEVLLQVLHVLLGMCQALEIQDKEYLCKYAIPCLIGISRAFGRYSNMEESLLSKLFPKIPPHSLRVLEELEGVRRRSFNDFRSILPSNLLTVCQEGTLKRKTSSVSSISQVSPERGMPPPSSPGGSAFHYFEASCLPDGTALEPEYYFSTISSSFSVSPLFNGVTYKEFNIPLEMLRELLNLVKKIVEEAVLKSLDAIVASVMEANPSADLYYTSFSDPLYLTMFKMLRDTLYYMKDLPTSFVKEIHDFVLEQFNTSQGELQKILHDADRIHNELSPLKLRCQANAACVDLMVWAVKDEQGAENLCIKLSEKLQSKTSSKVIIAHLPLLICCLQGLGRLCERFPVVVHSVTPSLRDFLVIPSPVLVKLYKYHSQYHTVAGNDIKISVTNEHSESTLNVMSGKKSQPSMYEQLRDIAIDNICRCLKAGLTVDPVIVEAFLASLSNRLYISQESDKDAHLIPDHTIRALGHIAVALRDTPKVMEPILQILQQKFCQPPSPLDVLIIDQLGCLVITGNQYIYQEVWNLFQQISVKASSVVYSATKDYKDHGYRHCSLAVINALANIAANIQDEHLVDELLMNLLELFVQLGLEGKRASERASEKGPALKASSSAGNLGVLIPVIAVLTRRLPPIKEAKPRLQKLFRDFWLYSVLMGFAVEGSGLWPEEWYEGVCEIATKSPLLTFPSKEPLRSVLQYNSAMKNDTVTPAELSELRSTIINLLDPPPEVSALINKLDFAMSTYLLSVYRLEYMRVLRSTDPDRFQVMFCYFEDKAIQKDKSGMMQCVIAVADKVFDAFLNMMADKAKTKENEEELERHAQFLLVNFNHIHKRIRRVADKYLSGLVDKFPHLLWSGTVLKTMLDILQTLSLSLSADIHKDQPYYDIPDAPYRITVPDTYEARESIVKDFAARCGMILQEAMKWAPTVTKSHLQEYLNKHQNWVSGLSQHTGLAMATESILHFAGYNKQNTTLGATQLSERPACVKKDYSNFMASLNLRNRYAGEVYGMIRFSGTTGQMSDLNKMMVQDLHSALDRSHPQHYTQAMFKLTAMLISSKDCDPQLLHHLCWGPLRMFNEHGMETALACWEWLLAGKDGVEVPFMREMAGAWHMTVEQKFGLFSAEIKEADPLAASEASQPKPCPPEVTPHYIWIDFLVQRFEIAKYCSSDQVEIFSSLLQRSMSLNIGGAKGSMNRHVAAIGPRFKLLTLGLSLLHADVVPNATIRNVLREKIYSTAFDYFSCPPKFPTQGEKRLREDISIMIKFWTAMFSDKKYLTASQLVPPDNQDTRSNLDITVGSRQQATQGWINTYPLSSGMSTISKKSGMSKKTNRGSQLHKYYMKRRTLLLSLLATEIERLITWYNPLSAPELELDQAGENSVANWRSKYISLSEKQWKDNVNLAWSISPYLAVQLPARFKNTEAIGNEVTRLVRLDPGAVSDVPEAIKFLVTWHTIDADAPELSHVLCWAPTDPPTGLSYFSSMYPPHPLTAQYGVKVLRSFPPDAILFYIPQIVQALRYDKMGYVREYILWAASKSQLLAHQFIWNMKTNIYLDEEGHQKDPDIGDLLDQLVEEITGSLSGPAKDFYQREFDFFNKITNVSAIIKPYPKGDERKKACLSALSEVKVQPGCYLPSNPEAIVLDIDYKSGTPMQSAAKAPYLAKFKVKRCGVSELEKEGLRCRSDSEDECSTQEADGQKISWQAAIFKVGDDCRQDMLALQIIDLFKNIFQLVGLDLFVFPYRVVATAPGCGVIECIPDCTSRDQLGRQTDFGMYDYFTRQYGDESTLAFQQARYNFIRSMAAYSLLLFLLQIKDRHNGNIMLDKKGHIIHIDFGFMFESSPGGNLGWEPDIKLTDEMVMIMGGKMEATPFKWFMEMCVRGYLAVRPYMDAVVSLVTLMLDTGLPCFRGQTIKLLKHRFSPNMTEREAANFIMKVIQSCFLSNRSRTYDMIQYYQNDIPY
Proto-oncogene tyrosine-protein kinase receptor Ret (Homo sapiens), sequence (P07949 whole entry): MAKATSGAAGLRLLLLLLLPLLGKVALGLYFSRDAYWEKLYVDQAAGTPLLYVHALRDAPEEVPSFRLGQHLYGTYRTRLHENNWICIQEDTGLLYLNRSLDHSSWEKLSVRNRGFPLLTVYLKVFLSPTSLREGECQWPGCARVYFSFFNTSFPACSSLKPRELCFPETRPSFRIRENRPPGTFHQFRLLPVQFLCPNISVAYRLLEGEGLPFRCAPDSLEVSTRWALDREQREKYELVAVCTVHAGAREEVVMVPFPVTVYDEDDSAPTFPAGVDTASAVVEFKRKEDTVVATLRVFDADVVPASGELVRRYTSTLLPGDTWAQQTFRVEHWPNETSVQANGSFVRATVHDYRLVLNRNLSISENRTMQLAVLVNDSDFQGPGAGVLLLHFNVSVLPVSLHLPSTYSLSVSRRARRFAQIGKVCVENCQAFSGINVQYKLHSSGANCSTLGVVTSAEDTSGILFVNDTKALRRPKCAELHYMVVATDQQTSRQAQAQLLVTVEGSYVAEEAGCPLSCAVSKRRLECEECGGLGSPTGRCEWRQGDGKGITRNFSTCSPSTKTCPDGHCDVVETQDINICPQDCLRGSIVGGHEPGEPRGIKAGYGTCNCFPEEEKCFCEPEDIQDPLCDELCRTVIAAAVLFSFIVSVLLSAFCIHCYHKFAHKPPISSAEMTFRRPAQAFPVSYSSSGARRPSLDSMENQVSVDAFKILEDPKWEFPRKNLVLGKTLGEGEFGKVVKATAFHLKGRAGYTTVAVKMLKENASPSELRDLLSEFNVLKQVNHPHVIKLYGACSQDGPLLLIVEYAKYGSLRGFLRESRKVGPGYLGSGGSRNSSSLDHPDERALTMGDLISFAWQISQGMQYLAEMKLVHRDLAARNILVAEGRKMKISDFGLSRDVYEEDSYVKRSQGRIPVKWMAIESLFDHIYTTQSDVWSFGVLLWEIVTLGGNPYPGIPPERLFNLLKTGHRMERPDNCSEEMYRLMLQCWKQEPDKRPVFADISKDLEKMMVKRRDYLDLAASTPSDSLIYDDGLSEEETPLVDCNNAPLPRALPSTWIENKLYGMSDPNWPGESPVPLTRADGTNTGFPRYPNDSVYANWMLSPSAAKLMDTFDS
MAP kinase-activated protein kinase 3 (Homo sapiens), sequence (Q16644 whole entry, looked up): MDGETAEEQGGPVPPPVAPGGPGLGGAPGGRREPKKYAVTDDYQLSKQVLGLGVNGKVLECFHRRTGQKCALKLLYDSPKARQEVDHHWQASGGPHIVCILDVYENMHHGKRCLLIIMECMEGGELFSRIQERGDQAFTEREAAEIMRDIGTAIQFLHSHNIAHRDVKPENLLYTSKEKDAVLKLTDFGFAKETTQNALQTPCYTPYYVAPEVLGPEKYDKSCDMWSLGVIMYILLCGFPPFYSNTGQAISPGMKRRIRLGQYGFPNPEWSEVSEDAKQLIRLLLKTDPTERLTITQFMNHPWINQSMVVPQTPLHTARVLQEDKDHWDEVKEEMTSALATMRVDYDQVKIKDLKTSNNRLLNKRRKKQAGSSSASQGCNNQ

Q: What does the source list for `CC(C)Oc1cc(NC(=O)N2CCCc3cc(CN4CCN(C)CC4=O)c(C=O)nc32)ncc1C#Cc1cccnc1`?
A: pIC50 (MDA-MB-453): 6.85; inhibition [1]: -5%; inhibition in vivo at 30 mg/kg (Hep 3B2 [2]): 95.2%; Activity (Hep 3B2 [3]): Active; inhibition (BaF3 [4]): Dose-Dependent Effect; Cmax [5]: 8560 ng/mL; pIC50 (NCI-H1581 [6]): < 5.52; inhibition [7]: 1%; pIC50 (Huh-7): 8.62; Activity (NCI-H1581 [8]): Active; inhibition (BaF3 [9]): Dose-Dependent Effect; inhibition [10]: 8%; inhibition [11]: 10%; AUC(0-t) at 24 h [12]: 39000 ng·h/mL; inhibition [13]: -2%; pKd [14]: 8.21; inhibition [15]: 10%; Cmax [16]: 11100 ng/mL; pIC50 [17]: 8.27; AUC(0-t) at 24 h [18]: 15300 ng·h/mL; pIC50 [19]: < 5.00; inhibition [20]: 5%; pIC50 [21]: < 5.00; clearance [22]: 6.15 mL/min/kg; inhibition (BaF3 [23]): Dose-Dependent Effect; Activity [24]: Non-Toxic; half-life [25]: 3.06 h; bioavailability [26]: 51%; Activity (Hep 3B2 [27]): Active; Activity [28]: Non-Toxic; inhibition [29]: -3%; Activity (NCI-H1581 [30]): Active; half-life [31]: 0.89 h; pIC50 [32]: < 5.00; inhibition [33]: 6%; inhibition [34]: 5%; inhibition [35]: 10%; inhibition [36]: 3%; pIC50 (Hep 3B2 [37]): 6.98
